Usually IC50 stands for the concentration that gives 50% inhibition.

This note sets out measurements from ChEMBL document CHEMBL3232732, “A,D-seco-limonoids from the stems of Clausena emarginata” (J Nat Prod, 2014).

SMILES strings stand for the structures. Calls of active or inactive are those of the source. The calls are words filed in the database; no cut-off is given here. Bounds are passed on as bounds.

What all share (assay type): functional, cell-based
One experiment deals with BV-2. Description: Inhibition of LPS-induced NO production in mouse BV2 cells compound pre-treated for 1 hr before LPS addition measured after 24 hrs by Griess assay. (Nitrite, measured by Griess reagent, commonly stands in for NO production.)
In the next experiment the test system is HCT-116. Description: Cytotoxicity against human HCT116 cells after 96 hrs by MTT assay. To be noted: HCT-116, 96 h. A general note: Tetrazolium assays rely on reduction of a dye to a coloured formazan, in cell work by metabolically active cells.
Another experiment has as its system HepG2. Description: Cytotoxicity against human HepG2 cells after 96 hrs by MTT assay. To be noted: HepG2, 96 h.
The nature of experiment [1]: Cytotoxicity against human BGC823 cells after 96 hrs by MTT assay. To be noted: BGC-823, 96 h.
Another experiment has as its system NCI-H1650. Description: Cytotoxicity against human NCI-H1650 cells after 96 hrs by MTT assay. To be noted: NCI-H1650, 96 h.
A further experiment deals with SK-OV-3. Description: Cytotoxicity against human SKOV3 cells after 96 hrs by MTT assay. Conditions: SK-OV-3, 96 h.

Take `COC(=O)C[C@H](OC(C)=O)[C@]1(C)[C@H]2[C@@H](O)C[C@@]3(C)[C@H](c4ccoc4)OC(=O)[C@H]4O[C@]43[C@]2(C)C(=O)C[C@H]1C(C)(C)O`: the IC50 with BV-2 is 8.8 µM; in the experiment with HCT-116, over 10 µM; in the experiment with HepG2 it was over 10 µM; in experiment [1], over 10 µM; in the experiment on NCI-H1650, over 10 µM; in the experiment on SK-OV-3, over 10 µM.
`CC1(C)OC(=O)C=C[C@]2(C)[C@H]3[C@@H](O)C[C@@]4(C)[C@H](c5ccoc5)OC(=O)[C@H]5O[C@]54[C@]3(C)C(=O)C[C@@H]12`: the IC50 is 5.3 µM in the experiment with BV-2; over 10 µM with HCT-116; over 10 µM in the experiment with HepG2; over 10 µM in experiment [1]; over 10 µM in the experiment with NCI-H1650; over 10 µM in the experiment on SK-OV-3.
Regarding `COC(=O)C[C@H]1OC(C)(C)[C@@H]2CC(=O)[C@]3(C)[C@H]([C@@H](O)C[C@@]4(C)[C@H](C5=CC(O)OC5=O)OC(=O)[C@H]5O[C@]543)[C@@]12C` (relative stereo), the inhibition entry in the experiment with BV-2 is “inactive”. Further, the IC50 (in the experiment with HCT-116; in the experiment with HepG2; in experiment [1]; with NCI-H1650; in the experiment on SK-OV-3) was over 10 µM each time.
For `CC(C)(O)[C@@H]1CC(=O)[C@]2(C)[C@@H]3[C@H](C[C@@]4(C)[C@H](c5ccoc5)OC(=O)[C@H]5O[C@]542)OC(=O)C=C[C@]31C`, the inhibition entry with BV-2 is “inactive”. The IC50 (with HCT-116; in the experiment with HepG2; in experiment [1]; in the experiment on NCI-H1650; in the experiment on SK-OV-3) was over 10 µM throughout.
As to `CC1(C)OC(=O)C=C[C@]2(C)[C@H]3[C@@H](O)C[C@@]4(C)[C@@H](C5=CC(=O)OC5O)OC(=O)[C@H]5O[C@]54[C@]3(C)C(=O)C[C@@H]12` (stereo partly specified), the inhibition result in the experiment on BV-2 is “inactive”. For the same molecule, the IC50 (with HCT-116; in the experiment with HepG2; in experiment [1]; with NCI-H1650; in the experiment on SK-OV-3) was over 10 µM in each case.
As to `CC(=O)O[C@H]1CC(=O)OC(C)(C)[C@@H]2CC(=O)[C@]3(C)[C@H]([C@@H](O)C[C@@]4(C)[C@H](c5ccoc5)OC(=O)[C@H]5O[C@]543)[C@@]12C`, in the experiment on BV-2, the inhibition result was “inactive”. In addition, the IC50 (with HCT-116; in the experiment with HepG2; in experiment [1]; in the experiment on NCI-H1650; in the experiment with SK-OV-3) was over 10 µM throughout.
Consider `COC(=O)C[C@H](O)[C@]1(C)[C@H]2[C@@H](O)C[C@@]3(C)[C@H](c4ccoc4)OC(=O)[C@H]4O[C@]43[C@]2(C)C(=O)C[C@H]1C(C)(C)O`, for which the IC50 is 7 µM in the experiment with BV-2; over 10 µM with HCT-116; over 10 µM in the experiment with HepG2; over 10 µM in experiment [1]; over 10 µM in the experiment on NCI-H1650; over 10 µM with SK-OV-3.
Turning to `CCOC(=O)C[C@H](OC(C)=O)[C@]1(C)[C@H]2[C@@H](O)C[C@@]3(C)[C@H](c4ccoc4)OC(=O)[C@H]4O[C@]43[C@]2(C)C(=O)C[C@H]1C(C)(C)O`, the IC50 with BV-2 is 5.1 µM; in the experiment with HCT-116, over 10 µM; in the experiment on HepG2, over 10 µM; in experiment [1], over 10 µM; with NCI-H1650, over 10 µM; in the experiment on SK-OV-3 it was over 10 µM.
Turning to `CC(=O)O[C@H]1CC(=O)OC(C)(C)[C@@H]2CC(=O)[C@]3(C)[C@H]([C@@H](O)C[C@@]4(C)[C@H](C5=CC(=O)OC5O)OC(=O)[C@H]5O[C@]543)[C@@]12C` (relative stereo), the inhibition entry with BV-2 is “inactive”. Moreover, the IC50 (with HCT-116; in the experiment with HepG2; in experiment [1]; in the experiment on NCI-H1650; with SK-OV-3) was over 10 µM each time.
In the case of `CC(=O)O[C@@H](CC(=O)O)[C@]1(C)[C@H]2[C@@H](O)C[C@@]3(C)[C@H](C4=CC(O)OC4=O)OC(=O)[C@H]4O[C@]43[C@]2(C)C(=O)C[C@H]1C(C)(C)O` (relative stereo), in the experiment on BV-2, the inhibition entry is “inactive”. In addition, the IC50 (in the experiment on HCT-116; with HepG2; in experiment [1]; in the experiment with NCI-H1650; in the experiment on SK-OV-3) was over 10 µM throughout.
Take `CC(=O)O[C@H]1CC(=O)OC(C)(C)[C@@H]2CC(=O)[C@]3(C)[C@H]([C@@H](O)C[C@@]4(C)[C@H](C5=CC(O)OC5=O)OC(=O)[C@H]5O[C@]543)[C@@]12C` (stereo partly specified): in the experiment with BV-2, the inhibition result was “inactive”. Also, the IC50 (with HCT-116; with HepG2; in experiment [1]; in the experiment on NCI-H1650; with SK-OV-3) was over 10 µM throughout.
With `COC(=O)C[C@@H]1OC(C)(C)[C@@H]2CC(=O)[C@]3(C)[C@H]([C@@H](O)C[C@@]4(C)[C@H](c5ccoc5)OC(=O)[C@H]5O[C@]543)[C@@]12C`, the IC50 in the experiment on BV-2 was 6.7 µM; with HCT-116, over 10 µM; with HepG2, over 10 µM; in experiment [1] it was over 10 µM; in the experiment with NCI-H1650, over 10 µM; with SK-OV-3, over 10 µM.
Consider `COC(=O)C[C@H]1OC(C)(C)[C@@H]2CC(=O)[C@]3(C)[C@H]([C@@H](O)C[C@@]4(C)[C@H](c5ccoc5)OC(=O)[C@H]5O[C@]543)[C@@]12C`, for which the IC50 in the experiment with BV-2 was 10 µM; in the experiment with HCT-116, over 10 µM; in the experiment on HepG2, over 10 µM; in experiment [1], over 10 µM; with NCI-H1650, over 10 µM; in the experiment with SK-OV-3, over 10 µM.
On to `CC1(C)OC(=O)C=C[C@]2(C)[C@H]3[C@@H](O)C[C@@]4(C)[C@H](C5=CC(O)OC5=O)OC(=O)[C@H]5O[C@]54[C@]3(C)C(=O)C[C@@H]12` (stereo partly specified), for which the inhibition entry in the experiment with BV-2 was “inactive”. Also, the IC50 (in the experiment with HCT-116; in the experiment on HepG2; in experiment [1]; with NCI-H1650; with SK-OV-3) was over 10 µM each time.
On to `COC(=O)C[C@H]1OC(C)(C)[C@@H]2CC(=O)[C@]3(C)[C@H]([C@@H](O)C[C@@]4(C)[C@H](C5=CC(=O)OC5O)OC(=O)[C@H]5O[C@]543)[C@@]12C` (stereo partly specified), for which the inhibition result in the experiment on BV-2 is “inactive”. Further, the IC50 (with HCT-116; in the experiment on HepG2; in experiment [1]; in the experiment on NCI-H1650; in the experiment on SK-OV-3) was over 10 µM each time.
As for `COc1cc(/C=C/C(=O)CC(=O)/C=C/c2ccc(O)c(OC)c2)ccc1O` [CURCUMIN], in the experiment on BV-2, the IC50 turned out to be 0.5 µM.
